System: ASC^−/− mice
Test: DSS colitis in ASC-deficient mice after oral antimicrobial pretreatment
Format: in vivo
Settings: oral antiviral, antifungal or antiparasitic treatment before DSS; weight loss compared (FIGS. 13C-13E)

Row | Structure (SMILES) | severity of colitis in ASC-deficient mice
1 | C[C@@H]1[C@H](O)[C@@H](C)/C=C/C=C/C=C/C=C/C=C/C=C/C=C/[C@H](O[C@@H]2O[C@H](C)[C@@H](O)[C@H](N)[C@@H]2O)C[C@@H]2O[C@](O)(C[C@@H](O)C[C@@H](O)[C@H](O)CC[C@@H](O)C[C@@H](O)CC(=O)O[C@H]1C)C[C@H](O)[C@H]2C(=O)O [amphotericin, amphotericin B] | None of these treatments altered the severity of colitis
2 | Nc1nc(O)c2ncn(COC(CO)CO)c2n1 [gancyclovir] | None of these treatments altered the severity of colitis
